Laboratory results taken from patent US20160031937A1, “NEURAL REGENERATION PEPTIDES AND USES THEREFOR” (CURONZ HOLDINGS COMPANY LIMITED, priority 2013, published 2016).
Like-named read-outs stand apart in the source and are kept apart here. Square brackets hold non-standard residues; d marks the D form. Ends that are not written are not given here. Aib = CC(C)(N)C(=O)O

Assays:
CXCR4 gene expression = CXCR4 gene expression by real time PCR; format: cell-based, human; settings: W9-hESCs
Description: The second experiment was done to assess the capability of NRP2945 for regulating the gene expression of its target receptor subunit CXCR4. For this purpose, W9-hESCs were either exposed to 10 minute, 30 minute or 60 minute of either 10 pM or 100 pM of NRP2945 under normoxic conditions; or in combination with 4 hours of OGD injury at concentrations of either 10 pM or 100 pM of NRP2945. At the end of the 4 hours, mRNA was extracted from all the cell samples, cDNA synthesis was performed using the SuperSript® cDNA kit (Invitrogen) followed by real time PCR. The efficacy of the real time PCR was 99% when using the following primers for the CXCR4 product propagation: […]
according to the publication: Nagase, Miyamasu et al. (2000) - J Immunol 164: 5935-5943

human W9-hESCs [1] = assay: TUNEL staining for apoptotic cell death after H2O2 injury; format: cell-based; settings: H2O2 oxidative stress, 24 hours; 100 fM NRP2945
Description: (§1) Neuronal differentiation was achieved using the noggin induction method described for mouse neurospheres as adapted by Dottori for human neurospheres (Dottori & Pera, 2007). The colonies were maintained at 37° C., with 5% CO2 in hESC medium supplemented with 500 ng/ml of Noggin for 14 days while replacing Noggin every other day.
At this point, the cells were washed with PBS and the colonies were again mechanically dissociated, but this time the central (differentiated) part of the colony was also cut into smaller pieces using a 26-gauge needle. […]
The media was replaced with fresh NBM-AO and the cells were incubated for a further 20 hours containing drug, before again measuring LDH. Oxidative stress was induced by adding 50 μM fresh H2O2 (Sigma, H1009) to the growth factor negative NBM on initiation of the experiment with continued culture for 4 hours when LDH was measured and NBM-AO without H2O2 was returned to the culture which was maintained for a further 20 hours before again measuring LDH. […]
Tunnel positive cells, wells were imaged and the images re-coded independently before quantitation. No additional blinding was performed for the machine read LDH assay process.

human W9-hESCs [2] = format: cell-based; settings: for reduction in LDH detected cell death: first 4 hours; for decrease of delayed injury (LDH): between removal of OGD at 4 hours and 24 hours
Description: Experiments with human embryonic stem cells (hESC) were carried out in accordance with the guidelines and regulations of the NHMRC and with the approval of the Austin Health Human Research Ethics Committee (Approval number H2008/03194), and University of Melbourne Human Research Ethics Committee (Approval number 0605017). H9 (WA-09, WiCell) cell lines were grown as previously described (Dottori & Pera, 2007).
Briefly, hESC were cultured on mitomycin-C treated mouse embryonic fibroblasts (MEFs) in hESC medium consisting of high-glucose Dulbecco's Modified Eagle Medium (DMEM) without sodium pyruvate, supplemented with 1% insulin/transferrin/selenium, 0.1 mM β-mercaptoethanol, 1% nonessential amino acids (NEAA), 2 mM glutamine, 25 U/ml penicillin, 25 μg/ml streptomycin (all from Invitrogen) and 20% fetal calf serum (FCS) (Hyclone).
Alternatively, hESC were cultured on mitomycin-C treated human foreskin fibroblasts (HFF; ATCC, CRL-2097) in KSR media consisting of DMEM/nutrient mixture F-12, supplemented with 0.1 mM […], 1% nonessential amino acids (NEAA), 2 mM glutamine, 25 U/ml penicillin, 25 μg/ml streptomycin and 20% knockout serum replacement (all from Invitrogen).
All cells were cultured at 37° C. in 5% CO2 with 100% humidity. Colonies were mechanically dissected every 7 days (subcultivated or passaged) and transferred to freshly prepared MEFs or HFFs. Media was changed every second day.
as §1
At this point, the cells were washed with PBS and the colonies were again mechanically dissociated, but this time the central (differentiated) part of the colony was also cut into smaller pieces using a 26-gauge needle. The pieces were transferred to individual wells in a low adherent 96-well plate containing Neurobasal®A (NBM) (Invitrogen) supplemented with 1× X B-27® (Invitrogen) and 1× N-2 (Invitrogen) 20 ng/ml human recombinant EGF and 20 ng/ml human recombinant bFGF (Pharmacia). Media was changed every 2 to 3 days to allow neurosphere formation over 2 weeks.
In order to facilitate neuronal differentiation, neurospheres were again separated into smaller pieces under a dissection microscope, and three to four pieces were transferred to each well of a 96-well plate. Prior to this transfer, the plate was pre-coated with poly-D-lysine (10 μg/ml in PBS), washed in PBS, recoated with mouse laminin (5 μg/ml in PBS), and washed again. The cells were then grown for 11 days (with media changed every two days) in NBM lacking growth factors prior to induction of injury and assessment of hypothermia.
On the day of experiments, the medium was changed to NBM+N2 containing a B27 preparation lacking the usual antioxidants (Invitrogen; 10889-038) to eliminate their confounding effects (NBM-AO).
To maintain isoosmotic pressure conditions, 25 mM 2-deoxy-D-glucose was added to NBM-AO medium and equilibrated for 30 minutes at room temperature before the initial media change as described above. […] Culture supernatant was removed after this 4 hour period and stored at 4° C. until analysed for lactate dehydrogenase (LDH) activity.
The media was replaced with fresh NBM-AO and the cells were incubated for a further 20 hours containing drug, before again measuring LDH. Oxidative stress was induced by adding 50 μM fresh H2O2 (Sigma, H1009) to the growth factor negative NBM on initiation of the experiment with continued culture for 4 hours when LDH was measured and NBM-AO without H2O2 was returned to the culture which was maintained for a further 20 hours before again measuring LDH.

Substance: Gly Arg Arg Ala Ala Pro Gly Arg Aib Gly Gly (GRRAAPGR[Aib]GG) [NRP2945, synthetic 11-mer peptidomimetic optimized for stability and pharmacokinetics]
- CXCR4 gene expression in the presence of OGD (CXCR4 gene expression; 4 hours of OGD, 10 pM or 100 pM NRP2945): unchanged
- expression of CXCR4 gene (CXCR4 gene expression; normoxic conditions, 10 pM or 100 pM NRP2945, relative to normoxic control, normalised to β actin): decreased significantly after only 10 minutes
- time of peak in CXCR4 gene down-regulation (CXCR4 gene expression; normoxic, maintained for at least 1 hour): 30 min
- extent of CXCR4 down-regulation (CXCR4 gene expression; within 30 minutes): constitutively expressed levels seen in a human tissue cDNA library
- cells spared from apoptosis (TUNEL) (human W9-hESCs [1]): 56.2%
- neuroprotective effects during OGD (human W9-hESCs [2]; 100 fM NRP2945): did not show neuroprotective effects
- decrease in LDH detected cell death in presence of CXCR4 inhibitor (human W9-hESCs [2]; 4 hours of OGD injury, 100 pM NRP2945 plus 300 nM AMD3100): abolished
- decrease in LDH detected cell death (human W9-hESCs [2]; AMD3100 experiment, 4 hours of OGD injury, 100 pM NRP2945 without inhibitor): 44%
- reduction of LDH release, net effect at 24 hours (human W9-hESCs [2]; AMD3100 experiment, OGD, 100 pM NRP2945 without inhibitor): 55%
- reduction in LDH detected cell death (human W9-hESCs [2]; OGD, 1 pM NRP2945 at injury induction): 23%
- reduction in LDH detected cell death (human W9-hESCs [2]; OGD, 10 pM NRP2945 at injury induction): 37%
- reduction in LDH detected cell death (human W9-hESCs [2]; OGD, 100 pM NRP2945 at injury induction): 43%
- reduction of LDH release, net effect at 24 hours (human W9-hESCs [2]; OGD, 1 pM NRP2945): 28%
- reduction of LDH release, net effect at 24 hours (human W9-hESCs [2]; OGD, 10 pM NRP2945): 44%
- reduction of LDH release, net effect at 24 hours (human W9-hESCs [2]; OGD, 100 pM NRP2945): 52%
- reduction of LDH release, net effect at 24 hours, in presence of CXCR4 inhibitor (human W9-hESCs [2]; OGD, 100 pM NRP2945 plus 300 nM AMD3100): blocked
- reduction of LDH release, net effect at 24 hours (human W9-hESCs [2]; OGD, 100 fM NRP2945): 17%
- decrease of delayed injury (LDH) (human W9-hESCs [2]; 10 pM NRP2945): 67%
- decrease of delayed injury (LDH) (human W9-hESCs [2]; 100 pM NRP2945): 79%
- reduction in LDH detected cell death (human W9-hESCs [2]; repeat experiment, OGD, 10 pM NRP2945 during injury induction): 41%
- reduction in LDH detected cell death (human W9-hESCs [2]; repeat experiment, OGD, 10 pM NRP2945 one hour after injury induction): 31%
- reduction in LDH detected cell death (human W9-hESCs [2]; repeat experiment, OGD, 100 pM NRP2945 during injury induction): 47%
- reduction in LDH detected cell death (human W9-hESCs [2]; repeat experiment, OGD, 100 pM NRP2945 one hour after injury induction): 34%
- reduction of LDH release, net effect at 24 hours (human W9-hESCs [2]; repeat experiment, OGD, 10 pM NRP2945 added at 0 hours): 48%
- reduction of LDH release, net effect at 24 hours (human W9-hESCs [2]; repeat experiment, OGD, 10 pM NRP2945 added at 1 hour): 36%
- reduction of LDH release, net effect at 24 hours (human W9-hESCs [2]; repeat experiment, OGD, 10 pM NRP2945 added at 3 hours): 22%
- reduction of LDH release, net effect at 24 hours (human W9-hESCs [2]; repeat experiment, OGD, 100 pM NRP2945 added at 0 hours): 54%
- reduction of LDH release, net effect at 24 hours (human W9-hESCs [2]; repeat experiment, OGD, 100 pM NRP2945 added at 1 hour): 35%
- reduction of LDH release, net effect at 24 hours (human W9-hESCs [2]; repeat experiment, OGD, 100 pM NRP2945 added at 3 hours): 22%
